# Measured values published in patent US20210238124A1, “ACETYLATED PRODRUGS FOR DELIVERY ACROSS THE BLOOD-BRAIN BARRIER” (THE GENERAL HOSPITAL CORPORATION, priority 2018, published 2021).
# Tests used:
# [1] = Biodistribution / brain uptake of ^18F-scyllo-inositols 1 and 2; format: in vivo, rats
# Protocol: Brain uptake (% DPG) at 5, 30, and 60 min for the acetylated derivative 1 was 0.8%, 0.9%, and 0.26% (See FIG. 4).
# Inositol is transported across the blood-brain barrier by a low capacity, saturable system.
# Aβ42 fibers = Aβ42 fibers (Homo sapiens, UniProt P05067); details: cited from earlier work
# [2] = rat, in vivo
# Protocol: Here, imaging is performed in normal rats and rats pretreated with mannitol.
# PET imaging was performed in a rats using a Siemens Focus 220 scanner with Neurological CT scanner. [^18F]-fluoromannitol (1.2 mCi) was injected via tail-vein and imaged in list mode for one hour.
# In a separate experiment, a 25% solution of D-mannitol was i.v. injected 30 min prior to tracer injection.
# large intestinal cancer = details: rats fed prior to carcinogen treatment; cited from earlier work
# [3] = Biodistribution of 4-[^18F]-fluoroinositol in normal rats; format: in vivo; details: FIG. 1
# Chain of Aβ42 fibers (P05067 672-713 limits assumed): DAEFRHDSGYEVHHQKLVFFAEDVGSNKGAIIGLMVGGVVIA
compound,measurement,setting,value
"OC1C(O)C(O)C([18F])C(O)C1O (centres unmarked) [Compound 2, 1-deoxy-1-[^18F]-fluoro-scyllo-inositol]",Brain uptake (% DPG),[1]; 5 min,0.18 % DPG
same,Brain uptake (% DPG),[1]; 30 min,0.30 % DPG
same,Brain uptake (% DPG),[1]; 60 min,0.36 % DPG
same,site of majority of the activity,[1]; FIG. 5,majority of the activity accumulating in kidneys
OC1C(O)C(O)C(F)C(O)C1O (centres unmarked) [1-deoxy-1-fluoro-scyllo-inositol],formation of Aβ42 fibers,Aβ42 fibers,significantly inhibit
"OC[C@@H](O)[C@@H](O)[C@H](O)[C@H](O)C[18F] [[^18F]-Fluoromannitol, 1-deoxy-1-[^18F]-fluoro-D-mannitol]",Brain accumulation (% injected dose),[2],0.1 % ID
same,Brain activity (% injected dose),[2],0.08 % ID
same,brain uptake in the images,[2],high brain uptake
same,early brain kinetics,[2],very fast flow related brain accumulation and washout
O[C@H]1[C@H](O)[C@@H](O)[C@H](O)[C@@H](O)[C@@H]1O [scyllo-inositol],formation of Aβ42 fibers,Aβ42 fibers,inhibiting Aβ42 fiber formation
"CC(=O)OC1C([18F])C(OC(C)=O)C(OC(C)=O)C(OC(C)=O)C1OC(C)=O (centres unmarked) [Compound 1, 1-deoxy-1-[^18F]-fluoro-2,3,4,5,6-penta-O-acetyl-scyllo-inositol]",brain clearance,"[1]; rat, in vivo",significant brain clearance
O=P([O-])(O)OC1C(OP(=O)(O)O)C(OP(=O)(O)O)C(OP(=O)(O)O)C(OP(=O)(O)O)C1OP(=O)(O)O.[Na+] (centres unmarked) [sodium inositol hexaphosphate],decrease in large intestinal cancer compared to the control carcinogen group,large intestinal cancer,35%
"OC1C(O)C(O)C(F)C(O)C1O (centres unmarked) [4-[^18F]-fluoroinositol, 4-deoxy-4-fluoro-myo-inositol]",defluorination,[3],minimal
same,tissue accumulation (biodistribution),[3],high and fast accumulation in kidney and bladder without any other specific tissue accumulation
